# Experimental data as given in patent publication US12508271B2, “Prodrugs of 2-PMPA for healthy tissue protection during PSMA-targeted cancer imaging or radiotherapy” (The Johns Hopkins University, priority 2017, dated 2025).
# Assays:
# [1] = Pharmacokinetics/tissue distribution of 2-PMPA in C4-2 prostate cancer tumor-bearing NSG mice; type: in vivo; details: 2-PMPA administered directly, 3 mg/kg i.v.
# Description: To generate a C4-2 in vivo model, 3×10^6 LNCaP-C4-2 cells were subcutaneously injected into the flanks of male NSG mice. When tumors grew to approximately 600-800 mm^3, tumors were excised, aseptically cut into 2-mm×2-mm pieces and frozen back viably (5% DMSO/95% FBS). Tumors were not passaged from mouse to mouse more than 4 times. For the current experiment, two vials of viably frozen explants were thawed at 37° C. Tumor explants were washed in RPMI without FCS and then surgically implanted in a subcutaneous pocket in male NSG mice. When tumors reached 600-800 mm^3, mice were euthanized, tumors excised aseptically, and cut into 2-mm×2-mm pieces prior to re-implantation into 40 mice. When tumors reached 500-700 mm^3, the pharmacokinetic experiment was performed. 2-PMPA (3 mg/kg, i.v.) or a molar equivalent of Tris-POC-2-PMPA (7.62 mg/kg, i.v.) were injected via tail vein after dissolution in vehicle (5% EtOH/10% Tween 80/85% 50 mM HEPES). Mice were then euthanized under isoflurane anesthesia 0.25, 0.5, 1, 3, or 6 hours later (n=3/group). Blood was collected by cardiac puncture into EDTA-lined tubes and stored on ice until plasma was isolated by centrifugation. Salivary glands, kidneys, and tumor were harvested and flash frozen on dry ice. All tissues were stored at −80° C. prior to bioanalysis.
# PSMA [2] = molecular target: PSMA (Mus musculus, UniProt O35409); details: 2-PMPA 0.01 mg co-injection with 177Lu-PSMA I&T (100 MBq); cited from earlier work
# PSMA [3] = molecular target: PSMA (Homo sapiens, UniProt Q04609); details: 2-PMPA 0.01 mg co-injection with 177Lu-PSMA I&T (100 MBq); cited from earlier work
# [4] = cited from earlier work
# PSMA (Mus musculus, UniProt O35409), sequence (O35409 whole entry): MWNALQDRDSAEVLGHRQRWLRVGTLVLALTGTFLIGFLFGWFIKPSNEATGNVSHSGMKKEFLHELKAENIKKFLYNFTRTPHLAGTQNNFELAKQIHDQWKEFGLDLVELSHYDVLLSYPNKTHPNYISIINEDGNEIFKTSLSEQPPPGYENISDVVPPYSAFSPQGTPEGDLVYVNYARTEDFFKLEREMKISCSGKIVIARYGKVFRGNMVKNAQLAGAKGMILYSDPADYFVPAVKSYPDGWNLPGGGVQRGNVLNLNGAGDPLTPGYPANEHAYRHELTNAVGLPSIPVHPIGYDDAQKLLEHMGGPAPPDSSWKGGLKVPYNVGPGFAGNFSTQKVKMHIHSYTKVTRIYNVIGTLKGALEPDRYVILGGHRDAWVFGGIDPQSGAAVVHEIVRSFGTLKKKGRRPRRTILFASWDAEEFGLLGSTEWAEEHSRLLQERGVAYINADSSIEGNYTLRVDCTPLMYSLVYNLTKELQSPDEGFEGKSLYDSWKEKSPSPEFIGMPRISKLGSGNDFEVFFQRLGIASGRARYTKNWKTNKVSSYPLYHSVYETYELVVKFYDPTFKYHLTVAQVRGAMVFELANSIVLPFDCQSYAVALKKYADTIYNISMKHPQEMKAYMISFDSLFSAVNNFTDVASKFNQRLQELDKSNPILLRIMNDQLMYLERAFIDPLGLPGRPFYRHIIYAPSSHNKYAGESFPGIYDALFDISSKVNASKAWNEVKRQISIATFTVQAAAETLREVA
# PSMA (Homo sapiens, UniProt Q04609), sequence (Q04609 whole entry): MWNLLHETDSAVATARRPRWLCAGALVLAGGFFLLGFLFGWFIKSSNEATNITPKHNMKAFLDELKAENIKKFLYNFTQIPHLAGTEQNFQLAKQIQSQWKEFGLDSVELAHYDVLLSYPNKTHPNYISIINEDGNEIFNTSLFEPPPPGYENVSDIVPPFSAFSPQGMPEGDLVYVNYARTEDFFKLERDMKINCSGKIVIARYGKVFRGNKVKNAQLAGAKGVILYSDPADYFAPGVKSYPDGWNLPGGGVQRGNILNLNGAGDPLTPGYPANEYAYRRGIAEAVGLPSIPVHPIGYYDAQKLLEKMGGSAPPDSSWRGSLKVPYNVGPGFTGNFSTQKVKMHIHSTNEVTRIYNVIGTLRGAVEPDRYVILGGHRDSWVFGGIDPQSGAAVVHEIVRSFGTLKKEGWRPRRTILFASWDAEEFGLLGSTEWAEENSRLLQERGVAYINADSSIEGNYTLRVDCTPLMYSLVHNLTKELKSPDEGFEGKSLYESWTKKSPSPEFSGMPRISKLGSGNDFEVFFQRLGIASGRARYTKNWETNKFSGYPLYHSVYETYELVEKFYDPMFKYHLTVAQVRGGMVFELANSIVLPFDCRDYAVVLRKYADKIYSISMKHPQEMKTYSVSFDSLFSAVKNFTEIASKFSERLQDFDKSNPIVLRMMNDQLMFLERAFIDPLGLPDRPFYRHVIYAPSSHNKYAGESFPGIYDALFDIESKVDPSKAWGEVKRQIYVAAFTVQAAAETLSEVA
smiles,measurement,setting,value
"O=C(O)CCC(CP(=O)(O)O)C(=O)O (stereo not shown) [Compound 2-PMPA, 2-(phosphonomethyl)pentanedioic acid]","2-PMPA kidney exposure, fold lower than achieved with TRIS-POC-2-PMPA delivery",[1],4 fold
same,"2-PMPA salivary gland exposure, fold lower than achieved with TRIS-POC-2-PMPA delivery",[1],10 fold
same,nephrotoxicity 3 months later,PSMA [2],attenuated nephrotoxicity
same,reduction of absorbed dose to the kidneys,PSMA [2],83%
same,inhibition of tumor uptake of the radiotherapeutic,PSMA [3],more than 50%
same,salivary gland penetration,[4]; 2-PMPA administered as parent,little to no
same,oral availability,"[4]; in vivo, po",negligible
